Values quoted from earlier work as cited in publication PMC9321963 (Birth Defects Research, 2022).

What was measured:
pregnant rats = settings: ref Mey, Babiuk, Clugston, Zhang, & Greer, [2003]; cited from earlier work
rats = settings: ref Food and Drug Administration, Duvelisib Label, [2018]; cited from earlier work
rabbits = settings: ref Food and Drug Administration, Duvelisib Label, [2018]; cited from earlier work

SMILES	anomalies in offspring after administration to pregnant rats (pregnant rats)	developmental toxicity (rats)	developmental toxicity (rabbits)
O=C(O)c1ccc(-c2ccccc2)cc1 [4‐biphenyl carboxylic acid]	congenital anomalies in the offspring, including CDH defects	–	–
C[C@H](Nc1ncnc2[nH]cnc12)c1cc2cccc(Cl)c2c(=O)n1-c1ccccc1 [Duvelisib]	–	developmental toxicant causing fetal losses and malformations	developmental toxicant causing fetal losses and malformations
O=C(NCCCCCCCCNC(=O)C(Cl)Cl)C(Cl)Cl [bisdiamine, N,N‐octamethylenebis (dichloroacetamide)]	congenital anomalies in the offspring, including CDH defects	–	–
O=[N+]([O-])c1ccc(Oc2ccc(Cl)cc2Cl)cc1 [nitrofen, 2,4‐dichlorophenyl‐p‐nitrophenyl ether]	congenital anomalies in the offspring, including CDH defects	–	–
